Literature values as cited in patent US20210386729A1, “METHODS FOR TREATING LIVER DISORDERS USING FXR AGONISTS” (NOVARTIS AG, priority 2016, published 2021).

Details: clinical studies, PBC or NASH subjects; cited from earlier work

## CC[C@H]1[C@@H](O)[C@@H]2[C@H](CC[C@]3(C)[C@@H]([C@H](C)CCC(=O)O)CC[C@@H]23)[C@@]2(C)CC[C@@H](O)C[C@@H]12 [OCA, 6α-ethyl-chenodeoxycholic acid]
  pruritus: may be associated with increased pruritus
